# Results taken from ChEMBL document CHEMBL1138517, “Synthesis and structure-activity relationship of griseofulvin analogues as inhibitors of centrosomal clustering in cancer cells” (J Med Chem, 2009).
# Assay: Inhibition of centrosomal clustering in human SCC114 cells expressing GFPalpha-tubulin assessed as mitotic cells with multipolar spindles by fluorescence microscopy
# Format: functional, cell-based
row,SMILES,IC50 [µM]
1,COc1cc(OC)c2c(c1Cl)O[C@]1(C2=O)C(OCc2ccccc2)=C(I)C(=O)C[C@H]1C,> 100
2,COc1cc(OC)c2c(c1Cl)O[C@]1(C2=O)C(OCc2ccccc2)=C/C(=N\O)C[C@H]1C,0.9
3,CCOC1=CC(=O)C[C@@H](C)[C@]12Oc1c(Cl)c(OC)cc(OC)c1C2=O,6.6
4,COc1cc(OC)c2c(c1Cl)O[C@]1(C2=O)C(OCC2CC2)=CC(=O)C[C@H]1C,1.8
5,COC1=CC(=O)C[C@@H](C)[C@]12Oc1c(Cl)c(OC)c([N+](=O)[O-])c(OC)c1C2=O,> 100
6,COc1cc(OC)c2c(c1Cl)O[C@@]1(C(=O)C=C(O)C[C@H]1C)C2=O,> 100
7,COC1=C[C@@H](O)C[C@@H](C)[C@]12Oc1c(Cl)c(OC)cc(OC)c1C2=O,> 100
8,COc1cc(OC)c2c(c1Cl)O[C@]1(C2=O)C(OCc2ccc(-c3ccccc3)cc2)=CC(=O)C[C@H]1C,2.9
9,COc1cc(OC)c2c(c1Cl)O[C@]1(C2=O)C(OCCc2ccccc2)=CC(=O)C[C@H]1C,15
10,COC1=CC(=O)C[C@@H](C)[C@]12Oc1c(Cl)c(OC)c(N)c(OC)c1C2=O,> 100
11,COC1=C(I)C(=O)C[C@@H](C)[C@]12Oc1c(Cl)c(OC)cc(OC)c1C2=O,> 100
12,COC1=CC(=O)C[C@@H](C)[C@]12Oc1c(Cl)c(OC)cc(OCc3ccccc3)c1C2=O,> 100
13,CCCOC1=C(I)C(=O)C[C@@H](C)[C@]12Oc1c(Cl)c(OC)cc(OC)c1C2=O,2
14,COc1cc(OC)c2c(c1Cl)O[C@]1(C2=O)C(OCc2ccc(C)cc2)=CC(=O)C[C@H]1C,0.9
15,CCOc1cc(OC)c(Cl)c2c1C(=O)[C@@]1(O2)C(OC)=CC(=O)C[C@H]1C,> 100
16,COc1cc(OC)c2c(c1Cl)O[C@]1(C2=O)C(OCc2ccccc2)=CC(=O)C[C@H]1C,0.9
17,COC1=C/C(=N\O)C[C@@H](C)[C@]12Oc1c(Cl)c(OC)cc(OC)c1C2=O,17
18,COc1cc(OC)c2c(c1Cl)O[C@]1(C2=O)C(OC(C)C)=CC(=O)C[C@H]1C,6.8
19,COc1cc(OC)c2c(c1Cl)O[C@@]1(C(=O)C(Cc3ccccc3)=C(O)C[C@H]1C)C2=O,> 100
20,CCCCOC1=CC(=O)C[C@@H](C)[C@]12Oc1c(Cl)c(OC)cc(OC)c1C2=O,2.5
21,COc1cc(OC)c2c(c1Cl)O[C@]1(C2=O)C(=O)C(C)(C)C(=O)C[C@H]1C,> 100

# More lines, now with the values ahead:
row,IC50 [µM],SMILES
1,1.3,COc1cc(OC)c2c(c1Cl)O[C@]1(C2=O)C(OC2CCCC2)=CC(=O)C[C@H]1C
2,> 100,COc1cc(OC)c2c(c1Cl)O[C@@]1(C2=O)[C@H](C)C[C@H](O)C[C@@H]1OC
3,> 100,COC1=CC(=O)C[C@@H](C)[C@]12Oc1c(Cl)c(OC)c(NCc3ccccc3)c(OC)c1C2=O
4,3.7,COc1cc(OC)c2c(c1Cl)O[C@]1(C2=O)C(OCC23CC4CC(CC(C4)C2)C3)=CC(=O)C[C@H]1C
5,1.3,COc1cc(OC)c2c(c1Cl)O[C@]1(C2=O)C(SCc2ccccc2)=CC(=O)C[C@H]1C
6,1.5,COc1cc(OC)c2c(c1Cl)O[C@]1(C2=O)C(Oc2ccccc2)=CC(=O)C[C@H]1C
7,6.6,CCCOC1=CC(=O)C[C@@H](C)[C@]12Oc1c(Cl)c(OC)cc(OC)c1C2=O
8,> 100,COC1=CC(=O)C[C@@H](C)[C@]12Oc1c(Cl)c(OC)cc(O)c1C2=O
9,24,COC1=CC(=O)C[C@@H](C)[C@]12Oc1c(Cl)c(OC)cc(OC)c1C2=O [GRISEOFULVIN]
10,2.8,CCCCCOC1=CC(=O)C[C@@H](C)[C@]12Oc1c(Cl)c(OC)cc(OC)c1C2=O
11,> 100,COC1=CC(=O)[C@@]2(Oc3c(Cl)c(OC)cc(OC)c3C2=O)[C@H](C)C1 [ISOGRISEOFULVIN]
12,4,CCCCCCOC1=CC(=O)C[C@@H](C)[C@]12Oc1c(Cl)c(OC)cc(OC)c1C2=O
13,27,COC1=C/C(=N\N(C)C)C[C@@H](C)[C@]12Oc1c(Cl)c(OC)cc(OC)c1C2=O
